# Test results as given in a melting point compilation (Tetko et al.; mined from patent text by program, amines drawn as free bases though some values may be those of a salt).
row,Compound,melting point [°C]
1,CCc1cc(NC(=O)c2nnnn2Cc2ccc(OC)cc2)c(O)c(C(C)=O)c1,140 to 142
2,CN(C)CC#Cc1cc(CC2CCOCC2)cc2c(=O)c(C(=O)NCc3ccc(Cl)cc3)cn(C)c12,157 to 159
3,CC(=O)Nc1ccc(S(=O)(=O)Cc2cccc(OC(C)=O)c2)c2ccc(C#N)nc12,229 to 231
4,O=[N+]([O-])c1cc(Br)nc(Br)c1,122 to 123
5,O=C(O)c1cc(F)c(F)c(I)c1F,122 to 124
6,CC1CC2C3CC(Cl)C4=CC(=O)C=CC4(C)C3C(O)CC2(C)C1C(=O)COC(=O)C(C)(C)C (centres undefined),189
7,CCCCCCCCCCCCCCCCN(C)S(=O)(=O)c1ccc(Cl)c([N+](=O)[O-])c1,74 to 75
8,CCc1c(-c2ccc(O)cc2)c2cc(COCCN(C)C)c3cccc1n32,141 to 143
9,O=C(O)c1nc2ccc(NCCCN3CCC(OC(c4ccccc4)c4ccccc4)CC3)nn2n1,135 to 138
10,CCCC[C@H](NC(=O)[C@H](Cc1ccccc1)NC(=O)OCc1ccccc1)C(=O)CSCc1ccco1,123 to 124
11,Nc1nc2c(s1)CC(CNC(=O)[C@@H]1CCCN1C(=O)[C@@H](CC1CCCCC1)NS(=O)(=O)Cc1ccccc1)CC2 (some centres undefined),203 to 205
12,Cc1cc(COc2ccc(C(=O)NC[C@@H](C(=O)NO)N3CCCCC3)cc2)c2ccccc2n1,190
13,COCCOC(=O)Nc1cccc(C)c1COc1cccn2c(C=O)c(C)nc12,119 to 120
14,CCOC(=O)Nc1cc(N)ccc1F,88 to 89
15,CCN(CC)c1ccc(CNc2cc(C(=O)Nc3ccccc3)ccc2OC)cc1,180 to 181
16,NC(Oc1ccccc1)C(O)CCCNc1ccc(Br)cc1 (centres undefined),106 to 110
17,COc1ccc(-n2cc(/C=C(\C#N)C(=O)NS(=O)(=O)c3ccccc3)c(-c3ccc(Cl)c(F)c3)n2)cc1Cl,263 to 264
18,CCn1ncc2c3onc(-c4ccc(F)cc4)c3cnc21,175 to 176
19,CCCCc1cc2c(cc1/C=C/c1ccc(C(=O)O)cc1)C(C)(C)CCC2(C)C,192 to 194
20,CCc1nc2c(N)nc3ccccc3c2n1CC1(O)CCOCC1,> 250
21,CCn1c2ccc(C(=O)CC(C)=O)cc2c2cc(C(=O)c3ccccc3C)ccc21,148
22,Nc1sc(/C=C/Cc2ccc(Cl)cc2)c(CN(C2CCCCC2)C2CCCCC2)c1C(=O)c1ccc(Cl)cc1,143 to 146
23,Nc1nc(OCc2cccc(Br)c2)ncc1F,143 to 145
24,COc1cccc2c(O)c(C(=O)NCC(=O)O)ncc12,168
25,O=C(O)Cc1c([N+](=O)[O-])ccc2c1O[C@@H](CNCc1ccccc1)CO2,206

row,Compound,melting point [°C]
1,CCOP(=O)(CCCCCCCOc1nc(-c2ccccc2)c(-c2ccccc2)n1-c1ccccc1)OCC,76 to 77
2,O=C(O)c1ccc(SC(C(=O)O)c2cccc(C(F)(F)F)c2)cn1 (centres undefined),190 to 195
3,N#CC1=C(C2CCCC2)Nc2n[nH]cc2C1c1ccccc1Cl (centres undefined),225
4,C#CCn1c(=O)c2c(nc(C#Cc3ccc(OC)c(OC)c3)n2C)n(CC)c1=O,222
5,CCOC(=O)CNc1ncccc1NC(=O)c1ccccc1Cl,111 to 112
6,O=C1[C@@H](O)[C@@H]2OCCC[C@@H]2N1Cc1ccccc1 (relative stereo),136 to 138
7,Nn1ccnc1-c1ccc(Cl)cc1,210
8,O=C1c2c(Br)cccc2S(=O)(=O)N1CCl,157 to 159
9,O=[N+]([O-])c1oc2c(ccc3ccccc32)c1-c1ccc(Br)cc1,230 to 233
10,O=C1Nc2c(ccc3ccccc23)SC1Cc1ccc(Cl)cc1 (centres undefined),185 to 186
11,CCC(C)NC(C(=O)O)C(C)C (centres undefined),> 300
12,COc1cc(C(F)(F)F)oc(=O)c1,61
13,O=C(N[C@H]1CC[C@H](CCN2CCN(c3nccc4c3OCC4)CC2)CC1)c1ccc(N2CCCCC2)cc1,182
14,C=CCC1=C(Cl)C(=O)c2ccccc2C1=O,69 to 70
15,COc1cc2c(cc1OC)C1(CCC(C(=O)O)(C(=O)O)CC1)N(C(=O)OCc1ccccc1)CC2,181 to 182
16,Cc1ccc(C(CO)c2ccc(C(C)C)cc2)c(O)c1C (centres undefined),83 to 84
17,CN1CCN(c2cc(Cl)cc3c2c(=O)n(Cc2ccncc2)c(=O)n3Cc2ccccc2)CC1,94 to 100
18,O=C(O)c1cccc(F)c1Nc1ccccc1F,176
19,CCOC(=O)C(C#N)=CNc1ccc(C=C(C#N)C(=O)OCC)o1,206 to 208
20,O=[N+]([O-])c1cnc(Nc2ccccc2F)c([N+](=O)[O-])c1,159 to 161
21,CSC(=NC(=O)c1cccc(Br)c1)NC(=O)c1ccccc1,145 to 146
22,COCc1ccc(CC(C)NCC(O)c2ccc(O)c(CO)c2)cc1 (centres undefined),81 to 92
23,O=CN1CCN(c2cc3c(cc2F)c(=O)c(C(=O)O)c2sccn23)CC1,335 to 336
24,CC(=O)SCCC(=O)N1N=C(c2ccc(S(N)(=O)=O)cc2)CC1C(=O)O (centres undefined),183 to 185
